Data as given in patent publication US11464770B2, “Anticancer pharmaceutical composition” (NATIONAL CANCER CENTER, priority 2016, dated 2022).
Where two headings read alike, the source gives them in different places.

What was measured:
[1] = test system: breast cancer cell lines (e.g. MDA-MB-231, SK-BR-3, MDA-MB-468, HCC1954); assay: Cell based assay, cell viability (CellTiter-Glo), breast cancer cell lines; details: 72 hours, CellTiter-Glo
Description: (§1) Commercially available bladder cancer, prostate cancer, lung cancer, breast cancer, blood cancer, pancreatic cancer, colorectal cancer, brain cancer, neuroblastoma, melanoma, liver cancer, cervical carcinoma, ovarian cancer, renal cancer, and papilloma cell lines were each treated with trypsin-EDTA and cultured, followed by being seeded in each well of a 96 well plate. After 24 hours of treatment at constant temperature, the respective cells were treated with the candidate compound so that a final concentration became 0 to 2 μM. The treated cells were additionally cultured for 72 hours, and cell viability was measured by using an ATP detection method (CellTiter-Glo® Luminescent Cell Viability Assay, Promega).

melanoma cell lines = assay: Cell based assay, cell viability (CellTiter-Glo), melanoma cell lines; details: Homo sapiens; LOX-IMVI cell line
Description: as §1

renal cancer cell lines = assay: Cell based assay, cell viability (CellTiter-Glo), renal cancer cell lines; details: Homo sapiens; ACHN cells
Description: as §1

[2] = Breast cancer cell line MDA-MB-231-L/DOX, read-out: IC50, MDA-MB-231-L/DOX
[3] = Homo sapiens, Breast cancer cell line BT-20, read-out: IC50, BT-20
[4] = Homo sapiens, Breast cancer cell line HCC1395, read-out: IC50, HCC1395
[5] = Homo sapiens, Breast cancer cell line HCC1954, read-out: IC50, HCC1954
[6] = Homo sapiens, Breast cancer cell line JIMT-1, read-out: IC50, JIMT-1
[7] = Homo sapiens, Breast cancer cell line MCF7, read-out: IC50, MCF7
[8] = Homo sapiens, Breast cancer cell line MDA-MB-231, read-out: IC50, MDA-MB-231
[9] = Homo sapiens, Breast cancer cell line MDA-MB-468, read-out: IC50, MDA-MB-468
[10] = Homo sapiens, Breast cancer cell line SK-BR-3, read-out: IC50, SK-BR-3

SMILES | IC50 [1, 2] [nM] | IC50 [1, 3] [nM] | IC50 [1, 4] [nM] | IC50 [1, 5] [nM] | IC50 [1, 6] [nM] | IC50 [1, 7] [nM] | IC50 [1, 8] [nM] | IC50 [1, 9] [nM] | IC50 [1, 10] [nM] | IC50 (melanoma cell lines) [nM] | IC50 (renal cancer cell lines) [nM]
CSc1c(C(C)=O)c(=O)c2c(Cl)ccc(Br)c2n1S(=O)(=O)c1ccc(Cl)cc1 [Compound 37, 3-acetyl-8-bromo-5-chloro-1-((4-chlorophenyl)sulfonyl)-2-(methylthio)quinolin-4(1H)-one] | > 2000 | > 2000 | > 10000 | > 2000 | > 10000 | > 2000 | > 2000 | > 2000 | > 2000 | > 2000 | > 2000
CSc1c(C(C)=O)c(=O)c2c(Cl)ccc(Br)c2n1S(=O)(=O)c1ccc(C(C)(C)C)cc1 [Compound 40, 3-acetyl-8-bromo-1-((4-(tert-butyl)phenyl)sulfonyl)-5-chloro-2-(methylthio)quinolin-4(1H)-one] | > 2000 | > 2000 | > 10000 | > 2000 | > 10000 | > 2000 | > 2000 | > 2000 | > 2000 | > 2000 | > 2000
CC(=O)c1c(SCc2cc(Cl)ccc2Cl)[nH]c2c(Br)ccc(Cl)c2c1=O [Compound 43, 3-acetyl-8-bromo-5-chloro-2-((2,5-dichlorobenzyl)thio)quinolin-4(1H)-one] | > 2000 | > 2000 | > 10000 | > 2000 | > 10000 | > 2000 | > 2000 | > 2000 | > 2000 | > 2000 | > 2000
CC(=O)c1c([S+]([O-])Cc2cccc(I)c2)[nH]c2c(Br)ccc(Cl)c2c1=O (stereo not drawn) [Compound 48, 3-acetyl-8-bromo-5-chloro-2-((3-iodobenzyl)sulfinyl)quinolin-4(1H)-one] | > 2000 | > 2000 | > 10000 | > 2000 | > 10000 | > 2000 | > 2000 | > 2000 | > 2000 | > 2000 | > 2000
CC(=O)c1c(SCc2ccccc2)nc2c(Br)ccc(Cl)c2c1O [Compound 52, 1-(2-(benzylthio)-8-bromo-5-chloro-4-hydroxyquinolin-3-yl)ethan-1-one] | > 2000 | > 2000 | > 10000 | > 2000 | > 10000 | > 2000 | > 2000 | > 2000 | > 2000 | > 2000 | > 2000
CC(=O)c1c([S+]([O-])Cc2ccccc2)nc2c(Br)ccc(Cl)c2c1O (stereo not drawn) [Compound 53, 1-(2-(benzylsulfinyl)-8-bromo-5-chloro-4-hydroxyquinolin-3-yl)ethan-1-one] | > 2000 | > 2000 | > 10000 | > 2000 | > 10000 | > 2000 | > 2000 | > 2000 | > 2000 | > 2000 | > 2000
CC(=O)c1c(S(=O)(=O)Cc2ccccc2)nc2c(Br)ccc(Cl)c2c1O [Compound 54, 1-(2-(benzylsulfonyl)-8-bromo-5-chloro-4-hydroxyquinolin-3-yl)ethan-1-one] | > 2000 | > 2000 | > 10000 | > 2000 | > 10000 | > 2000 | > 2000 | > 2000 | > 2000 | > 2000 | > 2000
CC(=O)c1c([S+]([O-])Cc2ccccc2C#N)[nH]c2c(Br)ccc(Cl)c2c1=O (stereo not drawn) [Compound 58, 2-(((3-acetyl-8-bromo-5-chloro-4-oxo-1,4-dihydroquinolin-2-yl)sulfinyl)methyl)benzonitrile] | > 2000 | > 2000 | > 10000 | > 2000 | > 10000 | > 2000 | > 2000 | > 2000 | 620 | 880 | > 2000
COCSc1[nH]c2c(Br)ccc(Cl)c2c(=O)c1C(C)=O [Compound 61, 3-acetyl-8-bromo-5-chloro-2-((methoxymethyl)thio)quinolin-4(1H)-one] | > 2000 | > 2000 | > 10000 | > 2000 | > 10000 | > 2000 | > 2000 | > 2000 | > 2000 | > 2000 | > 2000
CC(=O)c1c([S+]([O-])Cc2ccc(C(=O)c3ccccc3)cc2)[nH]c2c(Br)ccc(Cl)c2c1=O (stereo not drawn) [Compound 63, 3-acetyl-2-((4-benzoylbenzyl)sulfinyl)-8-bromo-5-chloroquinolin-4(1H)-one] | > 2000 | > 2000 | > 10000 | > 2000 | > 10000 | > 2000 | > 2000 | > 2000 | > 2000 | > 2000 | > 2000
CC(=O)c1c(S/C=C\C(=O)O)[nH]c2c(Br)ccc(Cl)c2c1=O [Compound 67, (Z)-3-((3-acetyl-8-bromo-5-chloro-4-oxo-1,4-dihydroquinolin-2-yl)thio)acrylic acid] | > 2000 | > 2000 | > 10000 | > 2000 | > 10000 | > 2000 | > 2000 | > 2000 | > 2000 | > 2000 | > 2000
CC(=O)c1c([S+]([O-])Cc2ccc(S(F)(F)(F)(F)F)cc2)[nH]c2c(Br)ccc(Cl)c2c1=O (stereo not drawn) [Compound 68, 3-acetyl-8-bromo-5-chloro-2-((4-(pentafluoro-16-sulfanyl)benzyl)sulfinyl)quinolin-4(1H)-one] | > 2000 | > 2000 | > 10000 | > 2000 | > 10000 | > 2000 | 1220 | > 2000 | 1230 | 960 | > 2000

Continued, values first:

IC50 [1, 2] [nM] | IC50 [1, 3] [nM] | IC50 [1, 4] [nM] | IC50 [1, 5] [nM] | IC50 [1, 6] [nM] | IC50 [1, 7] [nM] | IC50 [1, 8] [nM] | IC50 [1, 9] [nM] | IC50 [1, 10] [nM] | IC50 (melanoma cell lines) [nM] | IC50 (renal cancer cell lines) [nM] | SMILES
> 2000 | > 2000 | > 10000 | > 2000 | > 10000 | > 2000 | > 2000 | > 2000 | > 2000 | > 2000 | > 2000 | CSc1c(C(C)=O)c(=O)c2c(Cl)ccc(Br)c2n1S(=O)(=O)c1ccc([N+](=O)[O-])cc1 [Compound 38, 3-acetyl-8-bromo-5-chloro-2-(methylthio)-1-((4-nitrophenyl)sulfonyl)quinolin-4(1H)-one]
> 2000 | > 2000 | > 10000 | > 2000 | > 10000 | > 2000 | > 2000 | > 2000 | > 2000 | > 2000 | > 2000 | CCS(=O)(=O)n1c([S+](C)[O-])c(C(C)=O)c(=O)c2c(Cl)ccc(Br)c21 (stereo not drawn) [Compound 39, 3-acetyl-8-bromo-5-chloro-1-(ethylsulfonyl)-2-(methylsulfinyl)quinolin-4(1H)-one]
> 2000 | > 2000 | > 10000 | > 2000 | > 10000 | > 2000 | > 2000 | > 2000 | > 2000 | > 2000 | > 2000 | CC(=O)c1c(S(C)(=O)=O)n(S(=O)(=O)c2ccc(C(C)(C)C)cc2)c2c(Br)ccc(Cl)c2c1=O [Compound 41, 3-acetyl-8-bromo-1-((4-(tert-butyl)phenyl)sulfonyl)-5-chloro-2-(methylsulfonyl)quinolin-4(1H)-one]
> 2000 | > 2000 | > 10000 | > 2000 | > 10000 | > 2000 | > 2000 | > 2000 | 1570 | > 2000 | > 2000 | CC(=O)c1c([S+](C)[O-])n(S(=O)(=O)c2ccc(C(C)(C)C)cc2)c2c(Br)ccc(Cl)c2c1=O (stereo not drawn) [Compound 42, 3-acetyl-8-bromo-1-((4-(tert-butyl)phenyl)sulfonyl)-5-chloro-2-(methylsulfinyl)quinolin-4(1H)-one]
> 2000 | > 2000 | > 10000 | > 2000 | > 10000 | > 2000 | > 2000 | > 2000 | > 2000 | > 2000 | > 2000 | CC(=O)c1c(SCc2cc(F)cc(F)c2)[nH]c2c(Br)ccc(Cl)c2c1=O [Compound 45, 3-acetyl-8-bromo-5-chloro-2-((3,5-difluorobenzyl)thio)quinolin-4(1H)-one]
> 2000 | > 2000 | > 10000 | > 2000 | > 10000 | > 2000 | > 2000 | > 2000 | > 2000 | > 2000 | > 2000 | CC(=O)c1c(SCc2cccc(I)c2)[nH]c2c(Br)ccc(Cl)c2c1=O [Compound 47, 3-acetyl-8-bromo-5-chloro-2-((3-iodobenzyl)thio)quinolin-4(1H)-one]
> 2000 | > 2000 | > 10000 | > 2000 | > 10000 | > 2000 | > 2000 | > 2000 | > 2000 | > 2000 | > 2000 | CC(=O)c1c(S)[nH]c2c(Br)ccc(Cl)c2c1=O [Compound 62, 3-acetyl-8-bromo-5-chloro-2-mercaptoquinolin-4(1H)-one]
> 2000 | > 2000 | > 10000 | > 2000 | > 10000 | > 2000 | > 2000 | > 2000 | > 2000 | > 2000 | > 2000 | CC(=O)c1c([S+]([O-])CC#N)[nH]c2c(Br)ccc(Cl)c2c1=O (stereo not drawn) [Compound 65, 2-((3-acetyl-8-bromo-5-chloro-4-oxo-1,4-dihydroquinolin-2-yl)sulfinyl)acetonitrile]
> 2000 | > 2000 | > 10000 | > 2000 | > 10000 | > 2000 | > 2000 | > 2000 | > 2000 | > 2000 | > 2000 | CC(=O)c1c(SCC#N)[nH]c2c(Br)ccc(Cl)c2c1=O [Compound 66, 2-((3-acetyl-8-bromo-5-chloro-4-oxo-1,4-dihydroquinolin-2-yl)thio)acetonitrile]
